Assay results as given in PubChem BioAssay AID296 (DTP/NCI, 2004).
Several values for one entry are separate records, joined by “and”; a condition that tells them apart may be missing. Equal values may be shown once. Results filed as inconclusive are left out. Where a SMILES comes first, the peptide text is derived from it. The star is where a group is joined. Trt = c1ccc(C(c2ccccc2)(c2ccccc2)*)cc1; Cbz = O=C(OCc1ccccc1)*; Bn = c1ccc(C*)cc1; βAla = NCCC(=O)O

Test system: MX-1 breast xenograft, nude mice, tumor weight T/C
Test: NCI In Vivo Anticancer Drug Screen. Data for tumor model Human Mammary Carcinoma MX-1 Xenograft (intrarenal inoculation) in NU/NU Swiss (nude) mice
Conditions: endpoint: mean tumor weight change, higher = larger tumour
Method in brief: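 Activity is given as a ratio, with each measurement in the compound-treated arm divided by the matching measurement in vehicle-dosed controls. Tumour size or survival serves as the measured parameter.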

[1] = dose: 300.0 mg/kg/injection, schedule: Q04DX003 (sc), vehicle: saline
[2] = dose: 72.0 mg/kg/injection, schedule: Q04DX003 (sc), vehicle: saline with Tween-80
[3] = dose: 150.0 mg/kg/injection, schedule: Q04DX003 (sc), vehicle: Klucel (hydroxypropylcellulose) (HPC)
[4] = dose: 300.0 mg/kg/injection, schedule: Q04DX003 (sc), vehicle: Klucel (hydroxypropylcellulose) (HPC)
[5] = dose: 600.0 mg/kg/injection, schedule: Q04DX003 (sc), vehicle: Klucel (hydroxypropylcellulose) (HPC)
[6] = dose: 6.25 mg/kg/injection, schedule: Q04DX003 (ip), vehicle: suspension in saline
[7] = dose: 12.5 mg/kg/injection, schedule: Q04DX003 (ip), vehicle: suspension in saline
[8] = dose: 300.0 mg/kg/injection, schedule: Q04DX003 (sc), vehicle: saline with Tween-80
[9] = dose: 1200.0 mg/kg/injection, schedule: Q04DX003 (sc), vehicle: saline with Tween-80
[10] = dose: 600.0 mg/kg/injection, schedule: Q04DX003 (sc), vehicle: saline with Tween-80
[11] = dose: 2400.0 mg/kg/injection, schedule: Q04DX003 (sc), vehicle: saline with Tween-80

CCOC(=O)C(N)CSC(=O)NC (centres undefined)
T/C (dose: 112.0 mg/kg/injection, schedule: Q04DX003 (sc), vehicle: saline): 12 % of control | T/C [1]: 33 % of control | T/C (dose: 400.0 mg/kg/injection, schedule: Q04DX003 (sc), vehicle: saline): 15 % of control | T/C (dose: 600.0 mg/kg/injection, schedule: Q04DX003 (sc), vehicle: saline): 8 % of control | T/C (dose: 800.0 mg/kg/injection, schedule: Q04DX003 (sc), vehicle: saline): 3 % of control

CC(=O)Oc1c[nH]c(=O)[nH]c1=O
T/C (dose: 100.0 mg/kg/injection, schedule: Q04DX003 (sc), vehicle: distilled water + Tween-80): 117 % of control | T/C (dose: 400.0 mg/kg/injection, schedule: Q04DX003 (sc), vehicle: distilled water + Tween-80): 97 % of control | T/C (dose: 800.0 mg/kg/injection, schedule: Q04DX003 (sc), vehicle: distilled water + Tween-80): 95 % of control | T/C (dose: 1600.0 mg/kg/injection, schedule: Q04DX003 (sc), vehicle: distilled water + Tween-80): 58 % of control

Cc1c(CNc2ccc(C(=O)NC(CC(=O)O)C(=O)O)cc2)ccc2nc(N)nc(N)c12 (centres undefined)
T/C (dose: 6.0 mg/kg/injection, schedule: Q04DX003 (sc), vehicle: saline with Tween-80): 29 % of control | T/C (dose: 48.0 mg/kg/injection, schedule: Q04DX003 (sc), vehicle: saline with Tween-80): 13 % of control and 33 % of control | T/C [2]: 18 % of control and 28 % of control

O=P1(NCCCl)OCCCN1CCCl (centres undefined)
T/C (dose: 150.0 mg/kg/injection, schedule: Q04DX003 (sc), vehicle: saline): -95 % of control and -100 % of control | T/C [1]: -100 % of control

CC(=O)NC(C=O)OCC=O (centres undefined)
T/C (dose: 100.0 mg/kg/injection, schedule: Q04DX003 (sc), vehicle: water): 108 % of control | T/C (dose: 200.0 mg/kg/injection, schedule: Q04DX003 (sc), vehicle: water): 72 % of control | T/C (dose: 400.0 mg/kg/injection, schedule: Q04DX003 (sc), vehicle: water): 91 % of control

CC(CN1CC(=O)NC(=O)C1)N1CC(=O)NC(=O)C1 (centres undefined)
T/C [3]: 92 % of control | T/C [4]: 64 % of control

COC(=O)C(CSC(c1ccccc1)(c1ccccc1)c1ccccc1)NC(=O)C(CSCc1ccccc1)NC(=O)CCNC(=O)OCc1ccccc1 (centres undefined) ({Cbz-βAla}-Cys(Bn)-Cys(Trt)-OMe; configuration not given here)
T/C (dose: 75.0 mg/kg/injection, schedule: Q04DX003 (sc), vehicle: Klucel (hydroxypropylcellulose) (HPC)): 99 % of control | T/C [3]: 49 % of control | T/C [4]: 63 % of control | T/C [5]: 60 % of control

CC(=O)c1cccc(NC2C(N)C(NC(=O)N(C)C)(C(C)O)C(C)(O)C2(O)COC(=O)c2c(C)cccc2O)c1 (centres undefined)
T/C [6]: 62 % of control | T/C [7]: 85 % of control | T/C (dose: 25.0 mg/kg/injection, schedule: Q04DX003 (ip), vehicle: suspension in saline): 34 % of control

COc1cccc2c1C(=O)c1c(O)c3c(c(O)c1C2=O)C[C@H](O)C[C@@H]3OC1CC(N)C(O)C(C)O1 (some centres undefined)
T/C (dose: 3.12 mg/kg/injection, schedule: Q01DX010 (sc), vehicle: saline): 165 % of control | T/C (dose: 6.25 mg/kg/injection, schedule: Q01DX010 (sc), vehicle: saline): 83 % of control | T/C (dose: 12.5 mg/kg/injection, schedule: Q01DX010 (sc), vehicle: saline): 66 % of control | T/C (dose: 25.0 mg/kg/injection, schedule: Q01DX010 (sc), vehicle: saline): 81 % of control

COc1ccc(C(=O)C(CN(C)C)CN(C)C)cc1
T/C (dose: 12.5 mg/kg/injection, schedule: Q04DX003 (sc), vehicle: saline): 101 % of control | T/C (dose: 25.0 mg/kg/injection, schedule: Q04DX003 (sc), vehicle: saline): 123 % of control | T/C (dose: 50.0 mg/kg/injection, schedule: Q04DX003 (sc), vehicle: saline): 85 % of control

COc1ccc2c(NCCCCCCCCNc3c4ccccc4nc4cc(OC)ccc34)c3ccccc3nc2c1
T/C (dose: 8.0 mg/kg/injection, schedule: Q04DX003 (sc), vehicle: suspension in saline): 68 % of control | T/C (dose: 16.0 mg/kg/injection, schedule: Q04DX003 (sc), vehicle: suspension in saline): 78 % of control | T/C (dose: 32.0 mg/kg/injection, schedule: Q04DX003 (sc), vehicle: suspension in saline): 104 % of control | T/C (dose: 64.0 mg/kg/injection, schedule: Q04DX003 (sc), vehicle: suspension in saline): 92 % of control

COC1=C2C[C@@H](C)C[C@@H](OC)[C@@H](O)[C@H](C)/C=C(\C)[C@@H](OC(N)=O)[C@H](OC)/C=C\C=C(/C)C(=O)NC(=CC1=O)C2=O
T/C (dose: 4.0 mg/kg/injection, schedule: Q04DX003 (sc), vehicle: saline): 102 % of control | T/C (dose: 8.0 mg/kg/injection, schedule: Q04DX003 (sc), vehicle: saline): 89 % of control | T/C (dose: 16.0 mg/kg/injection, schedule: Q04DX003 (sc), vehicle: saline): 89 % of control | T/C (dose: 32.0 mg/kg/injection, schedule: Q04DX003 (sc), vehicle: saline): 88 % of control and 94 % of control | T/C (dose: 64.0 mg/kg/injection, schedule: Q04DX003 (sc), vehicle: saline): 85 % of control | T/C (dose: 128.0 mg/kg/injection, schedule: Q04DX003 (sc), vehicle: saline): 66 % of control

CC1=C(/C=C/C(C)=C/C=C/C(C)=C/C=O)C(C)(C)CCC1
T/C (dose: 150.0 mg/kg/injection, schedule: Q04DX003 (sc), vehicle: saline with Tween-80): 88 % of control | T/C [8]: 98 % of control | T/C [9]: 53 % of control

N=C(N)SCc1c2ccccc2c(CSC(=N)N)c2ccccc12
T/C (dose: 300.0 mg/kg/injection, schedule: Q04DX003 (sc), vehicle: suspension in saline): 93 % of control | T/C (dose: 600.0 mg/kg/injection, schedule: Q04DX003 (sc), vehicle: suspension in saline): 152 % of control | T/C (dose: 1200.0 mg/kg/injection, schedule: Q04DX003 (sc), vehicle: suspension in saline): 112 % of control | T/C (dose: 2400.0 mg/kg/injection, schedule: Q04DX003 (sc), vehicle: suspension in saline): 89 % of control

CCCCCCCCCCCCCCCCCCCCCC(=O)Nc1ccn(C2OC(CO)C(O)C2O)c(=O)n1 (centres undefined)
T/C [8]: 123 % of control | T/C [10]: 87 % of control | T/C [9]: 68 % of control | T/C [11]: 84 % of control

Cc1c2cc(Cl)c3ccccc3c2c[n+]2ccccc12
T/C [8]: 82 % of control | T/C [10]: 67 % of control | T/C [9]: 44 % of control | T/C [11]: 76 % of control

Nc1nc2c(ncn2C2OC(CO)C(O)C2O)c(=O)[nH]1.Nc1nc2c(ncn2C2OC(CO)C(O)C2O)c(=O)[nH]1.[NH2-].[NH2-].[Pt+2] (centres undefined)
T/C (dose: 300.0 mg/kg/injection, schedule: Q04DX003 (sc), vehicle: water): 68 % of control | T/C (dose: 600.0 mg/kg/injection, schedule: Q04DX003 (sc), vehicle: water): 22 % of control | T/C (dose: 1200.0 mg/kg/injection, schedule: Q04DX003 (sc), vehicle: water): 3 % of control

CCOC(=O)NC1=C(N2CC2)C(=O)C(NC(=O)OCC)=C(N2CC2)C1=O
T/C (dose: 1.56 mg/kg/injection, schedule: Q01DX010 (sc), vehicle: saline): 1 % of control | T/C (dose: 3.13 mg/kg/injection, schedule: Q01DX010 (sc), vehicle: saline): 3 % of control | T/C (dose: 3.13 mg/kg/injection, schedule: Q04DX003 (ip), vehicle: suspension in saline): 41 % of control | T/C [6]: -44 % of control | T/C [7]: -100 % of control

CCNC(C)(C)C(SSS)c1ccco1 (centres undefined)
T/C [3]: 102 % of control | T/C [4]: 97 % of control | T/C [5]: 80 % of control | T/C (dose: 1200.0 mg/kg/injection, schedule: Q04DX003 (sc), vehicle: Klucel (hydroxypropylcellulose) (HPC)): 86 % of control

CCCCCCCCSC1=C(Cl)C(=O)C(OC)=C(OC)C1=O
T/C (dose: 36.0 mg/kg/injection, schedule: Q04DX003 (sc), vehicle: saline with Tween-80): 113 % of control | T/C [2]: 109 % of control | T/C (dose: 144.0 mg/kg/injection, schedule: Q04DX003 (sc), vehicle: saline with Tween-80): 90 % of control

CCCCCCCCNc1cc2c3c(c1)CCCN3CCC2
T/C (dose: 3.0 mg/kg/injection, schedule: Q04DX003 (sc), vehicle: Klucel (hydroxypropylcellulose) (HPC)): 110 % of control | T/C (dose: 6.0 mg/kg/injection, schedule: Q04DX003 (sc), vehicle: Klucel (hydroxypropylcellulose) (HPC)): 74 % of control | T/C (dose: 12.0 mg/kg/injection, schedule: Q04DX003 (sc), vehicle: Klucel (hydroxypropylcellulose) (HPC)): 108 % of control | T/C (dose: 24.0 mg/kg/injection, schedule: Q04DX003 (sc), vehicle: Klucel (hydroxypropylcellulose) (HPC)): 51 % of control

NC(=O)/C=C/c1c[nH]c2nccnc12
T/C (dose: 25.0 mg/kg/injection, schedule: Q04DX003 (sc), vehicle: water): 98 % of control | T/C (dose: 50.0 mg/kg/injection, schedule: Q04DX003 (sc), vehicle: water): 46 % of control
